Reference: paper PMC3681809 (Cancer cell, 2013)

Molecular target: EZH1 (Homo sapiens, UniProt Q92800)
Experiment: histone methyltransferase selectivity assay
Type: biochemical

Chain of EZH1 (Q92800 whole entry): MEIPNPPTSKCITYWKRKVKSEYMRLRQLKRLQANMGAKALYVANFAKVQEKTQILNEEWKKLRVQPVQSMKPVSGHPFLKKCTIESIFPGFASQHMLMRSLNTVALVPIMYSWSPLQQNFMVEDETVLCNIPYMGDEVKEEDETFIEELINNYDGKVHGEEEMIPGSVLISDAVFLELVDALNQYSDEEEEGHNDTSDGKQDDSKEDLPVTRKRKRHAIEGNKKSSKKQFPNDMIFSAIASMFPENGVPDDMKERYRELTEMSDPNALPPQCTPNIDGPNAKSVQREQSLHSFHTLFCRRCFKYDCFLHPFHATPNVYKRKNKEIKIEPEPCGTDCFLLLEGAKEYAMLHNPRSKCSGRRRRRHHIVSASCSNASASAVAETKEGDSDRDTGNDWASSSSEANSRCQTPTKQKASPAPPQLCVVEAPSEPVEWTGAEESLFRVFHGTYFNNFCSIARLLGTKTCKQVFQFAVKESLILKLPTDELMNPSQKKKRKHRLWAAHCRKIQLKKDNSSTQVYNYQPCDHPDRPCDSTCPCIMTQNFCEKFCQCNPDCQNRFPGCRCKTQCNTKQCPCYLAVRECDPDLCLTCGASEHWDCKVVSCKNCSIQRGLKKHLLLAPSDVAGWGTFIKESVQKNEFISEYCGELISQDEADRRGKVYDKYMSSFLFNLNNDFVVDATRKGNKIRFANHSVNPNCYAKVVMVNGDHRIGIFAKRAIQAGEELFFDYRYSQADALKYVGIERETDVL
Chain of EZH1 (O75530 2-441 partner): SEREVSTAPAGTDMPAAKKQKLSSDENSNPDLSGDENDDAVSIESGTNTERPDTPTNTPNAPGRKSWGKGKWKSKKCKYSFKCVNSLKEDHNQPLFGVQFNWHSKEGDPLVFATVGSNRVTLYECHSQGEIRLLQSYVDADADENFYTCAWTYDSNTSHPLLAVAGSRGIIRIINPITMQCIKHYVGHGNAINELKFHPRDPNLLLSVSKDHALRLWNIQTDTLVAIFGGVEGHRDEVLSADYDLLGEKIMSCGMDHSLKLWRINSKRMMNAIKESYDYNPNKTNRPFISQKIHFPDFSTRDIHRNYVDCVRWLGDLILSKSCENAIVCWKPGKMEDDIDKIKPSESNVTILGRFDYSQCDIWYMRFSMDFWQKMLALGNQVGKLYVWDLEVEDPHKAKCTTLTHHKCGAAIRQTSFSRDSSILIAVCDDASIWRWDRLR
Chain of EZH1 (Q15022 whole entry partner): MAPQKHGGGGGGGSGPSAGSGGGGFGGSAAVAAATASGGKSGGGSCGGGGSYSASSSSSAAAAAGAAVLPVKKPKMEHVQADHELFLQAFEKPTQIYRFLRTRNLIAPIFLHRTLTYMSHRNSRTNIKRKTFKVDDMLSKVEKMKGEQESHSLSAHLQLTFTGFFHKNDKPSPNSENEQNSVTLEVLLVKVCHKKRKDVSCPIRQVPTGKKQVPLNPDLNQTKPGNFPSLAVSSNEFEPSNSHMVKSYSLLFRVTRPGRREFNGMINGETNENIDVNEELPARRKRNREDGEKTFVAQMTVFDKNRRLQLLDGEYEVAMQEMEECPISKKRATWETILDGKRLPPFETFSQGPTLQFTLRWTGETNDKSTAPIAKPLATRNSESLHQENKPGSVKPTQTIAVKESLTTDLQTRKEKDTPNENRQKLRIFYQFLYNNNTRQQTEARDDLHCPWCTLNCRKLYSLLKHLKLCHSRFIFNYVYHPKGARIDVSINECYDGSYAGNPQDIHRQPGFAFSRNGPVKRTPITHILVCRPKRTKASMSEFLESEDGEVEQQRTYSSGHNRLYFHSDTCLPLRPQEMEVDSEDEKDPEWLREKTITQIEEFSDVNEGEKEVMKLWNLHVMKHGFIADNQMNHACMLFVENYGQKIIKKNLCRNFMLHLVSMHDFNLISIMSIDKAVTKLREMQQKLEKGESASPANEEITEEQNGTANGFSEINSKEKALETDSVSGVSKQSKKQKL

- Ki: 636 nM
SMILES: Cc1cc(C)c(CNC(=O)c2cc(-c3ccc(N4CCN(C)CC4)nc3)cc3c2c(C)cn3C(C)C)c(=O)[nH]1 [GSK503]
